The target in one assay is T1, PDE4A (Homo sapiens, UniProt P27815).
T1 construct: PDE4A (NG_029594, AA 156–886); made in house; host or cells: SF9 insect cells (baculovirus, Bac-To-Bac, pFastbac)
Nature of the assay: Recombinant PDE activity, scintillation proximity assay: PDE4A. The conditions noted are these: substrate [3H]cAMP, means from n independent experiments. The class given is biochemical. As to the method: For the preparation of human recombinant PDEs of interest, the Bac-To-Bac baculoviral expression system from Invitrogen (Carlsbad, CA, United States) was used according to the instruction manual. […] The plasmids were transformed into DH10Bac bacteria, SF9 insect cells were transfected with the bacmid DNA, and the resulting baculoviruses were stored and used for further rounds of infections. For protein production, SF9 cells were infected until a cytopathic effect was visible (after about 72 h), the SF9 cells were harvested and broken up by 3 freeze/thaw cycles, and by shearing 10 times through a 0.1 mm cannula using a syringe. […] The Phosphodiesterase Scintillation Proximity Assays (TRKQ7090 for [^3H]cAMP, GE Healthcare Europe GmbH, Chalfont St Giles, United Kingdom, and TRKQ7100 for [^3H]cGMP, Perkin Elmer, Waltham, MA, United States) were performed essentially according to the instruction manual. […] Assay solutions containing recombinant baculoviral-expressed PDE (to give an activity of 5.000–20.000 cpm corresponding to 5–20% of total activity added), 50 mmol/L Tris/HCl pH 7.5, 8.3 mmol/L MgCl2, 1.7 mmol/L EGTA, and 10 µL radiolabeled substrate (0.05 µCi in H2O) were incubated for 1 h at 30°C (final volume 100 μL).

In another assay the target is T2, PDE1C (Homo sapiens, UniProt Q14123).
T2 construct: the full-length open reading frames of PDE1C; made in house; host or cells: SF9 insect cells (baculovirus, Bac-To-Bac, pFastbac)
T2 sequence (Q14123 whole entry): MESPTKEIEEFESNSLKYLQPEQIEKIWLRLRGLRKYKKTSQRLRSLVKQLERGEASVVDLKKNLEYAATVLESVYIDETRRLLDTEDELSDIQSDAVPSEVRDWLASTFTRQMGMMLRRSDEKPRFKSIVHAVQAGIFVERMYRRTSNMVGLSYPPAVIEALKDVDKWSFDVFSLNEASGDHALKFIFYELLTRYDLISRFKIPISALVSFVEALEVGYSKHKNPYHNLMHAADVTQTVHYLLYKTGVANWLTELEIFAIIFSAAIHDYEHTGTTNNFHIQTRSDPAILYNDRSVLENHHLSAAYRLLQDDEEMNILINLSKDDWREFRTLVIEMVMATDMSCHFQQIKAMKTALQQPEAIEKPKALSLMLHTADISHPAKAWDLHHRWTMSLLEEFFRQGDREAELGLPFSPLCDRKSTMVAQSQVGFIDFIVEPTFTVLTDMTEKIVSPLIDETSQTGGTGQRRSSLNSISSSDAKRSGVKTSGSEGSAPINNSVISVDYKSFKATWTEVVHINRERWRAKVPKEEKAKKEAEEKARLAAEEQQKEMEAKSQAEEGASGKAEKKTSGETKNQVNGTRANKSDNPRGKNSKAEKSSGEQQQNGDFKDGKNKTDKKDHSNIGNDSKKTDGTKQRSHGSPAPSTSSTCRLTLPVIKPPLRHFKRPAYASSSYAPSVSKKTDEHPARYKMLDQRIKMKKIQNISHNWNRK
Nature of the assay: Recombinant PDE activity, scintillation proximity assay: PDE1C. The class given is biochemical. The source says: For the preparation of human recombinant PDEs of interest, the Bac-To-Bac baculoviral expression system from Invitrogen (Carlsbad, CA, United States) was used according to the instruction manual. In short, the full-length open reading frames of PDE1C (National Center for Biotechnology Information Gene-Ref-Seq identifier NG_051183), PDE3A (NG_030033), PDE4A (NG_029594, AA 156–886), PDE4C (NG_029629), PDE7A (NG_029614), and PDE9A (NG_047067) were cloned into the plasmid vector pFastbac. For PDE4B and PDE4D, active site fragments were used (PDE4B NG_029038: AA 152–484, PDE4D NG_027957, AA 79–438). The plasmids were transformed into DH10Bac bacteria, SF9 insect cells were transfected with the bacmid DNA, and the resulting baculoviruses were stored and used for further rounds of infections. […] The protein content was measured and an equal volume of 87% (v/v) glycerol was added prior to freezing at −20°C. […] The reaction was stopped by addition of 50 µL of yttrium silicate scintillation proximity assay beads (17.8 mg/mL, 18 mM zinc sulfate in H2O) and the amount of produced [^3H]AMP/[^3H]GMP associated was determined using a Wallac Microbeta scintillation counter. […]
(In general: SPA uses beads or plates that emit light when radiolabelled molecules are held near them.)

Assay [1] relates to LPS-stimulated TNF-α release. Nature of the assay: LPS-induced TNF-α release in human whole blood. The class given is cell-based. Particulars: LPS 0.1 µg/mL. On the procedure: Heparinized whole blood was collected from the Aorta abdominalis of WI (Han) male rats (Charles River Laboratories, Sulzfeld, Germany) and from healthy male human donors, and treated with 1 µL (rat) or 2.5 µL (human) of BI 1015550 or vehicle [final DMSO concentration 0.5% (v/v)]. Final assay volumes were 200 μL (rat) and 500 μL (human). After incubation for 30 min at 37°C, 95% humidity, and 5% CO2, cultures were treated with LPS [final concentration 10 µg/mL (rat), 0.1 µg/mL (human)] or saline. After 7 h, plates were centrifuged at 3.200 × g at 4°C for 10 min and plasma was used for cytokine measurement. Meso Scale Discovery (MSD) (Rockville, MD, United States) rat and human pro-inflammatory panels were used for detection of TNF-α and IL-6 in rat plasma [diluted 1:2 (v/v)]) and human plasma [negative control undiluted, other samples diluted 1:200 (v/v)] according to the manufacturer’s instructions.

The next assay has as its system α-SMA protein expression. In words: α-SMA protein expression of TGF-β-stimulated IPF lung fibroblasts (Western blot replacement assay). The class given is cell-based, human. On the procedure: Fibroblasts from donors with IPF (IPF-LF) (Asterand, Detroit, MI, United States) were grown in fibroblast basal medium (CC-3131, Lonza Walkersville, Inc., Walkersville, MD, United States) supplemented with FGM-2 SingleQuot Kit Supplements and Growth Factors (CC-4126, Lonza). Cells were grown in a humidified incubator at 37°C and 5% CO2. All assays were performed at passage 7 or 8. For assay set-up, cells were seeded in fibroblast growth medium plus supplements in assay-relevant densities. For TGF-β-stimulated assays, cells were seeded at 4,500 cells per well in 96-well plates. Proliferation assays were performed in 96-well plates at an initial seeding cell density on day 0 of 2,000 cells per well. After 24-h, the cell culture medium was changed to starvation medium (fibroblast basal medium without supplements). After a 24-h starvation period, cells were pre-incubated for 30 min with different concentrations of BI 1015550 plus/minus different concentrations of nintedanib and/or 1 nmol/L PGE2 and stimulated with the assay-relevant stimulus for the indicated time in the presence of the compound.
For determination of α-SMA protein expression, IPF-LF cells were stimulated with TGF-β (4 ng/mL) for 48 h. Lysates were assayed in a Western blot replacement assay (MSD). In short, lysates were pipetted onto high binding plates (MSD) and were sequentially incubated with a mouse anti-human α-SMA antibody (Sigma Aldrich) and an anti-mouse sulfo-tag antibody (MSD). For analysis, an MSD sector imager was used.
On the technique in general: A western blot detects proteins with antibodies after separation by electrophoresis.

T1 sequence (P27815 156-886): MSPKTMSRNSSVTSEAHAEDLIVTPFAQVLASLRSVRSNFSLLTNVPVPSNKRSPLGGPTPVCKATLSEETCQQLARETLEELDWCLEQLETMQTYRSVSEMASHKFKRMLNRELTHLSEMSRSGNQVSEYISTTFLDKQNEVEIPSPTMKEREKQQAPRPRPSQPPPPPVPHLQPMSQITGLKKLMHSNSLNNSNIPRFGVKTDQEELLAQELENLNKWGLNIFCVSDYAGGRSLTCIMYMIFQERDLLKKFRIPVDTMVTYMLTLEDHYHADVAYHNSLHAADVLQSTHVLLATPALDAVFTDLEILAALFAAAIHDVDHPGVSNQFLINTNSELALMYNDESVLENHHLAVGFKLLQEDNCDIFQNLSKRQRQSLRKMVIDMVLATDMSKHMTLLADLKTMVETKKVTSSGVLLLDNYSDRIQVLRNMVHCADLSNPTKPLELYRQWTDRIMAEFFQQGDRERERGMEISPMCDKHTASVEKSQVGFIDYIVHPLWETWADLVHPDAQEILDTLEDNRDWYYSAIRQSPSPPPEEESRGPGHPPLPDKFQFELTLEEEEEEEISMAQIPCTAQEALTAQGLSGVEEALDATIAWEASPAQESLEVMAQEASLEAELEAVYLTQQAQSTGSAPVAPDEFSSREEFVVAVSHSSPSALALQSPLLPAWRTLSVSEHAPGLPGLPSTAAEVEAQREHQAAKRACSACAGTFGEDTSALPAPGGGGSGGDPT

With `[O-][S+]1CCc2nc(N3CCC(c4ncc(Cl)cn4)CC3)nc(NC3(CO)CCC3)c21` (centres unmarked) [BI 1015550], the IC50 is 248 nM at PDE4A; 46000 nM on PDE1C (substrate cAMP); 85000 nM on PDE1C (substrate cGMP); 670 nM in assay [1]; 210 nM in the assay on α-SMA protein expression (TGF-β (4 ng/mL, 48 h)-stimulated IPF-LF). The “Maximal inhibition of TNF-α release” value in assay [1] is given as 70–80%. Further, in the assay on α-SMA protein expression (combination with nintedanib 10–100 nmol/L), the “Additional inhibitory efficacy on α-SMA protein expression in combination” value is given as “did not result in additional inhibitory efficacy”. Further, in the assay on α-SMA protein expression (combination with pirfenidone (100 µmol/L), data not shown), the “Additional inhibitory effects in combination, myofibroblast transformation assay” value was “did not yield any additional inhibitory effects”.

As a reminder, the IC50 is the concentration at which inhibition is half-maximal.

These data come from paper PMC9065678, “BI 1015550 is a PDE4B Inhibitor and a Clinical Drug Candidate for the Oral Treatment of Idiopathic Pulmonary Fibrosis” (Frontiers in Pharmacology, 2022).
